In the Deep4Chem optical property database:

Experiment: solvent given as SMILES

In the case of `c1ccc(-c2cc(-c3ccc4ccc5c(-c6ccnc(-c7ccccn7)c6)ccc6ccc3c4c65)ccn2)nc1`, the fluorescence lifetime (in C1CCOC1) is reported as 2 ns, the fluorescence lifetime (in CC#N) is reported as 2.2 ns and the fluorescence lifetime (in CCC#N) is reported as 2.2 ns. The fluorescence lifetime (in CCCC#N) was 2.1 ns, the fluorescence lifetime (in CCCCCC) was 2.6 ns and the fluorescence lifetime (in CCCO) was 2.1 ns. For the same compound, the fluorescence lifetime (in CCO) was 2.1 ns, the fluorescence lifetime (in CO) was 1.7 ns and the fluorescence lifetime (in Cc1ccccc1) was 1.8 ns.

`COc1ccc(C#Cc2ccccc2C#Cc2ccc(OC)cc2)cc1` showed a fluorescence lifetime (in CC#N) of 2.14 ns.

Work on `CCCCC(CC)COc1ccc2nc(-c3ccc(-c4ccc(N(C)C)cc4)s3)sc2c1` (centres undefined) yielded a fluorescence lifetime (in ClCCl) of 2.28 ns.

In the case of `COc1ccc(C2=C3C(C)=CC(C=Cc4ccc(C(=O)OC5C[C@H]6CCC5(C)C6(C)C)cc4)=[N+]3[B-](F)(F)n3c(/C=C/c4ccc(C(=O)OC5CC6CCC5(C)C6(C)C)cc4)cc(C)c32)cc1` (some centres undefined), the fluorescence lifetime (in Cc1ccccc1) is reported as 2.6 ns.

Work on `COc1ccc(C2=CC(c3cc(OC)cc(OC)c3)=[O+][B-](F)(F)O2)cc1` yielded a fluorescence lifetime (in ClCCl) of 7.4 ns.

In the case of `c1ccc2cc3cnccc3cc2c1`, the fluorescence lifetime (in CCO) is reported as 20 ns.

In the case of `CCOc1ccc2c(-c3nc(-c4ccccc4F)no3)cc(=O)oc2c1`, the fluorescence lifetime (in CCO) is reported as 6.6 ns and the fluorescence lifetime (in ClC(Cl)Cl) is reported as 5.1 ns.

In the case of `COc1cccc(/C=C/c2ccccc2)c1`, the fluorescence lifetime (in CC#N) is reported as 0.93 ns.

`N#CC(C#N)=C(/C=C/c1cc2c3c(c1)CCCN3CCC2)c1ccc2c3c(cccc13)CC2` showed a fluorescence lifetime (in C1CCOC1) of 5.6 ns, a fluorescence lifetime (in CC#N) of 2.62 ns and a fluorescence lifetime (in CC(C)=O) of 2.8 ns. The fluorescence lifetime (in CCOC(C)=O) was 5.46 ns, the fluorescence lifetime (in CN(C)C=O) was 2.67 ns and the fluorescence lifetime (in CO) was 1.63 ns. It also gave a fluorescence lifetime (in Cc1ccccc1) of 4.48 ns and a fluorescence lifetime (in ClC(Cl)Cl) of 6.68 ns.

`C[Si](C)(C)c1cccc2c(C#N)cccc12` showed a fluorescence lifetime (in C1CCCCC1) of 8 ns.

With `CN(C)c1ccc2c(-c3ccc(N)cc3C(=O)[O-])c3ccc(=[N+](C)C)cc-3oc2c1` the fluorescence lifetime (in CCO) was 3.19 ns and the fluorescence lifetime (in O) was 2.23 ns.

Compound `COc1ccc2c(c1)C(=O)c1ccccc1-2` has a fluorescence lifetime (in C1CCCCC1) of 9.9 ns and a fluorescence lifetime (in CC#N) of 1.8 ns.

Compound `Oc1ccccc1/C=N/c1ccccc1/N=C/c1ccccc1O` has a fluorescence lifetime (in CC#N) of 0.0089 ns.

Compound `Cc1ccc(C(=O)NN2C3=C(CC4=C2CCCC4=O)C(=O)CCC3)cc1` has a fluorescence lifetime (in C1CCOC1) of 4.1 ns, a fluorescence lifetime (in CC#N) of 5.9 ns and a fluorescence lifetime (in CC(C)=O) of 5.1 ns. For the same compound, the fluorescence lifetime (in CCCCCO) was 5.9 ns, the fluorescence lifetime (in CO) was 4.6 ns and the fluorescence lifetime (in ClC(Cl)Cl) was 7.9 ns. The fluorescence lifetime (in ClCCl) was 5.3 ns.

Work on `COc1ccc(-c2ccc3c(c2)c2cc(-c4ccc(OC)cc4)ccc2n3-c2ccc(C(=O)c3ccc4sc5ccccc5c4c3)nc2)cc1` yielded a fluorescence lifetime (in c1cc(-n2c3ccccc3c3ccccc32)cc(-n2c3ccccc3c3ccccc32)c1) of 8.4 ns.
